Measured values taken from the supplement of paper PMC13380429.

What was measured:
Details in all cases: 72 h
U2OS [1] = test: cell viability relative to DMSO; higher = less toxic
Vero E6 [2] = test: as above
Caco-2 [3] = test: as above
Calu-3 [4] = test: as above
HepG2 [5] = test: as above
U2OS [6] = test: relative viability EC50 (midpoint between 100% and the lowest measured viability); higher = less toxic
Vero E6 [7] = test: as above
Caco-2 [8] = test: as above
Calu-3 [9] = test: as above
HepG2 [10] = test: as above
U2OS [11] = test: drug sensitivity score (DSS) for viability; higher = more toxic; extreme values may be limits of the assay
Vero E6 [12] = test: as above
Caco-2 [13] = test: as above
Calu-3 [14] = test: as above
HepG2 [15] = test: as above

Row | Structure (SMILES) | cell viability (U2OS [1]; 1 nM) [%] | cell viability (U2OS [1]; 10 nM) [%] | cell viability (U2OS [1]; 100 nM) [%] | cell viability (U2OS [1]; 1000 nM) [%] | cell viability (U2OS [1]; 10000 nM) [%] | cell viability (Vero E6 [2]; 1 nM) [%] | cell viability (Vero E6 [2]; 10 nM) [%] | cell viability (Vero E6 [2]; 100 nM) [%] | cell viability (Vero E6 [2]; 1000 nM) [%] | cell viability (Vero E6 [2]; 10000 nM) [%] | cell viability (Caco-2 [3]; 1 nM) [%] | cell viability (Caco-2 [3]; 10 nM) [%] | cell viability (Caco-2 [3]; 100 nM) [%] | cell viability (Caco-2 [3]; 1000 nM) [%] | cell viability (Caco-2 [3]; 10000 nM) [%] | cell viability (Calu-3 [4]; 1 nM) [%] | cell viability (Calu-3 [4]; 10 nM) [%] | cell viability (Calu-3 [4]; 100 nM) [%] | cell viability (Calu-3 [4]; 1000 nM) [%] | cell viability (Calu-3 [4]; 10000 nM) [%] | cell viability (HepG2 [5]; 1 nM) [%] | cell viability (HepG2 [5]; 10 nM) [%] | cell viability (HepG2 [5]; 100 nM) [%] | cell viability (HepG2 [5]; 1000 nM) [%] | cell viability (HepG2 [5]; 10000 nM) [%] | relative viability EC50 (U2OS [6]) [µM] | relative viability EC50 (Vero E6 [7]) [µM] | relative viability EC50 (Caco-2 [8]) [µM] | relative viability EC50 (Calu-3 [9]) [µM] | relative viability EC50 (HepG2 [10]) [µM] | drug sensitivity score (U2OS [11]) | drug sensitivity score (Vero E6 [12]) | drug sensitivity score (Caco-2 [13]) | drug sensitivity score (Calu-3 [14]) | drug sensitivity score (HepG2 [15])
1 | O=C(Nc1ccc(F)cc1)N1CCc2ccccc2[C@@H]1c1ccc(C(F)(F)F)cc1 [TC-I-2000] | 98.7 | 99.2 | 102 | 99.8 | 102 | 108 | 101 | 102 | 103 | 89.7 | 102 | 103 | 95.9 | 98.7 | 93.3 | 107 | 98.3 | 94.6 | 99 | 97.4 | 93.6 | 109 | 99.5 | 101 | 94.2 | > 10 | > 10 | > 10 | > 10 | > 10 | 0 | 0 | 0 | 0 | 0
2 | COc1cccc(-n2nc(C(=O)O)cc2-c2ccc(C3CCCCC3)c(Cl)c2)c1 [TC-LPA5-4] | 100 | 96.4 | 97.8 | 94.9 | 94.9 | 102 | 104 | 103 | 99.6 | 96 | 87.4 | 93.6 | 96.4 | 97.7 | 101 | 97.4 | 94.5 | 101 | 95.8 | 108 | 111 | 92.6 | 101 | 104 | 102 | > 10 | > 10 | > 10 | > 10 | > 10 | 0 | 0 | 0 | 0 | 0
3 | O=C1c2ccccc2C(Cc2ccncc2)(Cc2ccncc2)c2ccccc21 [XE-991] | 103 | 98.8 | 100 | 96.5 | 100 | 94.5 | 101 | 98.8 | 93.3 | 91.1 | 100 | 94.1 | 97.5 | 93.8 | 89.2 | 108 | 87.7 | 108 | 91.2 | 99.8 | 97.8 | 97.6 | 97.6 | 96.3 | 89.1 | > 10 | > 10 | > 10 | > 10 | > 10 | 0 | 0 | 0 | 0 | 0
4 | Nc1ncnc2c1ncn2[C@@H]1O[C@H](COP(=O)(O)O)[C@@H](O)[C@H]1O [adenosine-phosphate] | 97.9 | 102 | 94.6 | 104 | 107 | 101 | 108 | 110 | 91 | 102 | 114 | 98 | 86.4 | 113 | 92.8 | 89.1 | 93.5 | 93.6 | 101 | 89.6 | 90.2 | 94.5 | 101 | 85.6 | 96 | > 10 | > 10 | > 10 | > 10 | > 10 | 0 | 0 | 0 | 0 | 0
5 | C=CCSCC1Nc2cc(Cl)c(S(N)(=O)=O)cc2S(=O)(=O)N1 (stereo not given) [althiazide] | 96.1 | 95.5 | 100 | 96.9 | 100 | 97.8 | 97.2 | 98.8 | 104 | 112 | 90.1 | 96.8 | 93 | 90.9 | 89.8 | 111 | 94.8 | 112 | 112 | 101 | 109 | 116 | 94.2 | 102 | 107 | > 10 | > 10 | > 10 | > 10 | > 10 | 0 | 0 | 0 | 0 | 0
6 | C[C@H]1CN(C[C@H](Cc2ccccc2)C(=O)NCC(=O)O)CC[C@@]1(C)c1cccc(O)c1 [alvimopan] | 100 | 97.3 | 101 | 104 | 102 | 90.4 | 96.2 | 94.8 | 95.8 | 104 | 102 | 91.8 | 93.6 | 107 | 106 | 107 | 91.9 | 104 | 111 | 104 | 96.8 | 103 | 110 | 99.3 | 104 | > 10 | > 10 | > 10 | > 10 | > 10 | 0 | 0 | 0 | 0 | 0
7 | CN1CCCC(n2nc(Cc3ccc(Cl)cc3)c3ccccc3c2=O)CC1 (stereo not given) [azelastine] | 104 | 111 | 98.8 | 100 | 93.4 | 108 | 95 | 110 | 103 | 94.9 | 95.2 | 91.2 | 98.2 | 94.2 | 87 | 97.1 | 96.7 | 105 | 114 | 92.3 | 113 | 91.5 | 101 | 89.3 | 89.2 | > 10 | > 10 | > 10 | > 10 | > 10 | 0 | 0 | 0 | 0 | 0.3
8 | NC(CO)C(=O)NNCc1ccc(O)c(O)c1O (stereo not given) [benserazide] | 96.8 | 101 | 93 | 99.8 | 94 | 115 | 99.8 | 106 | 97 | 106 | 95.7 | 99 | 81.6 | 97.8 | 87.9 | 88.9 | 89.8 | 95.7 | 96.2 | 92.2 | 80.5 | 97.4 | 104 | 85 | 94.5 | > 10 | > 10 | > 10 | > 10 | > 10 | 0 | 0 | 0 | 0 | 0
9 | CCOC(=O)c1ccc(N)cc1 [benzocaine] | 99.3 | 95.4 | 99.9 | 99.6 | 95.5 | 103 | 102 | 95.7 | 102 | 110 | 96.4 | 84.7 | 101 | 97.9 | 97 | 94 | 96 | 105 | 105 | 98.7 | 98.6 | 94.9 | 98.1 | 95 | 96.5 | > 10 | > 10 | > 10 | > 10 | > 10 | 0 | 0 | 0 | 0 | 0
10 | CN(Cc1cc(Br)cc(Br)c1N)C1CCCCC1 [bromhexine] | 98.9 | 105 | 96.3 | 99.5 | 98.2 | 110 | 97.9 | 106 | 102 | 103 | 96.2 | 109 | 100 | 97.9 | 94.6 | 92 | 90.7 | 95.1 | 90.9 | 95.4 | 99.2 | 108 | 107 | 97.9 | 108 | > 10 | > 10 | > 10 | > 10 | > 10 | 0 | 0 | 0 | 0 | 0
11 | Cc1ccc(Cl)c(OCC(O)CNC(C)(C)C)c1 (stereo not given) [bupranolol] | 101 | 98.1 | 99.6 | 101 | 104 | 93.6 | 97.5 | 97.2 | 100 | 103 | 109 | 89 | 91.5 | 99.5 | 107 | 98.2 | 99.8 | 93.6 | 105 | 104 | 99.3 | 97.6 | 104 | 97.8 | 94.6 | > 10 | > 10 | > 10 | > 10 | > 10 | 0 | 0 | 0 | 0 | 0
12 | C[C@@H]1NC(=O)[C@@H](N)CNC(=O)[C@H](C2CCNC(=N)N2)NC(=O)/C(=C/NC(N)=O)NC(=O)[C@H](CNC(=O)CC(N)CCCN)NC1=O.N=C1NCC[C@H]([C@@H]2NC(=O)/C(=C/NC(N)=O)NC(=O)[C@H](CNC(=O)C[C@@H](N)CCCN)NC(=O)[C@H](CO)NC(=O)[C@@H](N)CNC2=O)N1 [capreomycin] | 103 | 100 | 102 | 96 | 106 | 98.8 | 105 | 102 | 94.1 | 94.8 | 96.2 | 94.8 | 98 | 95 | 99.3 | 104 | 100 | 105 | 95.3 | 108 | 94.4 | 102 | 105 | 108 | 99.1 | > 10 | > 10 | > 10 | > 10 | > 10 | 0 | 0 | 0 | 0 | 0
13 | CO/N=C(\C(=O)N[C@@H]1C(=O)N2C(C(=O)[O-])=C(C[n+]3ccn4ncccc43)CS[C@H]12)c1nsc(N)n1 [cefozopran] | 97 | 97.7 | 102 | 107 | 104 | 92.7 | 99.9 | 94 | 98.7 | 109 | 93.7 | 97.9 | 96.5 | 96.7 | 99 | 102 | 104 | 93.6 | 104 | 118 | 89.7 | 90 | 88.8 | 104 | 102 | > 10 | > 10 | > 10 | > 10 | > 10 | 0 | 0 | 0 | 0 | 0
14 | CCOP(=S)(OCC)Oc1nc(Cl)c(Cl)cc1Cl [chlorpyrifos] | 92.3 | 102 | 94.9 | 94.8 | 99.4 | 102 | 90.2 | 109 | 106 | 94.2 | 100 | 102 | 97.5 | 103 | 107 | 89.7 | 93.6 | 90.1 | 97 | 96.2 | 93.3 | 100 | 90.3 | 96.3 | 93.7 | > 10 | > 10 | > 10 | > 10 | > 10 | 0 | 0 | 0 | 0 | 0
